Measured values reported in ChEMBL document CHEMBL1201862, “PubChem BioAssay data set” (2004).
The source made the active and inactive calls.

Legend:
Coagulation factor XII = target: T1, Coagulation factor XII (Homo sapiens, UniProt P00748); assay type: functional;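 note: activated factor XIIa alpha cleaving a fluorogenic AMC peptide substrate; inhibitor potency from loss of enzyme activity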
T1 sequence (P00748 whole entry): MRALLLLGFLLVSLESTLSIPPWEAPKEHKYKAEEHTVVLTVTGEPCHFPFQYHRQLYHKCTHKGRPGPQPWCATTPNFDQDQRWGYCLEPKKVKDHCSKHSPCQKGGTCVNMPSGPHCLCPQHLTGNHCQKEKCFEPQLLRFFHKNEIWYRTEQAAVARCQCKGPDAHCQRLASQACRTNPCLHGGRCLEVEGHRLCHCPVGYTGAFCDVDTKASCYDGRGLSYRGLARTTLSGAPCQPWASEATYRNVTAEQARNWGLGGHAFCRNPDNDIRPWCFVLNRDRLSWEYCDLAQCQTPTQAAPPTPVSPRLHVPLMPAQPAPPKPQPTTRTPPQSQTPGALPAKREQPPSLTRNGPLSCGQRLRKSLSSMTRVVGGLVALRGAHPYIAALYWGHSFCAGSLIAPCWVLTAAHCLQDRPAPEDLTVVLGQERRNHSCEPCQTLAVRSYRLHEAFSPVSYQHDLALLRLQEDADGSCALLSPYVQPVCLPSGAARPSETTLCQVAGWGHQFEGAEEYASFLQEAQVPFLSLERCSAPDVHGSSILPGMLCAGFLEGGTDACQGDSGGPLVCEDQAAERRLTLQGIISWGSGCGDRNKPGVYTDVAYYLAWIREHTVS

Vero = assay: viability of Vero cells under compound – cytotoxicity control for flavivirus capping enzyme inhibitors (AID 588742); assay type: functional; details: Chlorocebus sabaeus
Cytochrome P450 2D6 = Cytochrome P450 2D6 (Homo sapiens, UniProt P10635);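 note: CYP2D6 member of a cytochrome P450 panel assay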
Cytochrome P450 3A4 = Cytochrome P450 3A4 (Homo sapiens, UniProt P08684);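 note: CYP3A4 tested as one member of a cytochrome P450 panel screen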
[1] = A cytotoxicity screen of small molecule inhibitors of the PhoP region in Salmonella typhi identified in the primary screen. [Related pubchem assays: 1850, 1864, 1985 ]; assay type: functional
[2] = viability of uninfected HEp-2 cells – cell-based, HTS, cytotoxicity control for RSV inhibitor project, dose response (AID 2410); assay type: functional; details: human respiratory syncytial virus
[3] = decrease of insulin promoter-GFP reporter – imaging, high-content screening, mouse beta cells (AID 1628); assay type: functional; details: MIN6
[4] = MIN6 cell viability loss – mouse insulinoma, cytotoxicity control, dose response (AID 2122); assay type: functional;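 note: confirmatory high-throughput counterscreen run to flag cytotoxic compounds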
Cytochrome P450 1A2 = target: T2, Cytochrome P450 1A2 (Homo sapiens, UniProt P05177);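 note: PubChem cytochrome P450 panel assay, CYP1A2 panel member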
T2 sequence (P05177 whole entry): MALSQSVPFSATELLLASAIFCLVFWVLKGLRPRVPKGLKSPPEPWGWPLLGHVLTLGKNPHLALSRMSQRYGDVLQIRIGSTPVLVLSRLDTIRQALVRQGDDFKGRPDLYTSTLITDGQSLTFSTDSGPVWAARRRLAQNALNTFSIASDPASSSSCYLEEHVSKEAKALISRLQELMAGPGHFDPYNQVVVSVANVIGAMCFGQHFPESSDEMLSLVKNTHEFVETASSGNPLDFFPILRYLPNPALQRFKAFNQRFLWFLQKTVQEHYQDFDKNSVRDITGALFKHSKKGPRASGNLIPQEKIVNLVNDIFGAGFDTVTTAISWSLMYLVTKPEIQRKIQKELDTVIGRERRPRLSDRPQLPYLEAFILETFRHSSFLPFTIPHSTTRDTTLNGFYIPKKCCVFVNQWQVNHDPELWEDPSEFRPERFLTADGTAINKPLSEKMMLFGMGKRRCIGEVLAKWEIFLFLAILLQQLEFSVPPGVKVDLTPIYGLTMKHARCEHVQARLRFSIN

[5] = Trypanosoma cruzi growth suppression in host cells – NIH3T3 host cells, beta-gal luminescence, confirmation (AID 2044); assay type: functional, cell-based;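 note: intracellular parasites grown in NIH/3T3 mouse fibroblasts as host cells; luminescent beta-galactosidase reporter signal from transgenic T. cruzi replicating inside host cells; inhibitors lower the luminescence signal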
[6] = NIH3T3 cell viability loss – ATP luminescence, mouse fibroblasts, counter-screen, dose response (AID 2010); assay type: functional, cell-based;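 note: cells exposed to compound for about 90 hours before reading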
Genome polyprotein = Genome polyprotein (dengue virus type 2, UniProt P29990); assay: flavivirus cap methylation enzyme inhibition – biochemical, confirmation dose response, primary screen (AID 588689); assay type: functional
[7] = target: T3, Polyadenylate-binding protein 1 (Homo sapiens, UniProt P11940); assay: MLLE binding blockers, Cy5 peptide tracer – biochemical, fluorescence polarization, Cy5-PAM2 peptide, secondary, miRNA deadenylation inhibitor project, dose response (AID 602260); assay type: functional; details: read-out: IC50_Mean
[8] = target: T3, Polyadenylate-binding protein 1; assay: MLLE domain peptide-binding blockers, IC50 – biochemical, fluorescence polarization, FITC-PAM2 peptide, dose response (AID 602259); assay type: functional; details: read-out: IC50_Mean
Cytochrome P450 2C9 = Cytochrome P450 2C9 (Homo sapiens, UniProt P11712)
[9] = target: T4, Replicative DNA helicase DnaB (Mycobacterium tuberculosis, UniProt P9WMR3); assay: DnaB intein splicing inhibitors, dose response, biochemical, cell-free fluorescence (AID 449749); assay type: functional
T4 sequence (P9WMR3 whole entry): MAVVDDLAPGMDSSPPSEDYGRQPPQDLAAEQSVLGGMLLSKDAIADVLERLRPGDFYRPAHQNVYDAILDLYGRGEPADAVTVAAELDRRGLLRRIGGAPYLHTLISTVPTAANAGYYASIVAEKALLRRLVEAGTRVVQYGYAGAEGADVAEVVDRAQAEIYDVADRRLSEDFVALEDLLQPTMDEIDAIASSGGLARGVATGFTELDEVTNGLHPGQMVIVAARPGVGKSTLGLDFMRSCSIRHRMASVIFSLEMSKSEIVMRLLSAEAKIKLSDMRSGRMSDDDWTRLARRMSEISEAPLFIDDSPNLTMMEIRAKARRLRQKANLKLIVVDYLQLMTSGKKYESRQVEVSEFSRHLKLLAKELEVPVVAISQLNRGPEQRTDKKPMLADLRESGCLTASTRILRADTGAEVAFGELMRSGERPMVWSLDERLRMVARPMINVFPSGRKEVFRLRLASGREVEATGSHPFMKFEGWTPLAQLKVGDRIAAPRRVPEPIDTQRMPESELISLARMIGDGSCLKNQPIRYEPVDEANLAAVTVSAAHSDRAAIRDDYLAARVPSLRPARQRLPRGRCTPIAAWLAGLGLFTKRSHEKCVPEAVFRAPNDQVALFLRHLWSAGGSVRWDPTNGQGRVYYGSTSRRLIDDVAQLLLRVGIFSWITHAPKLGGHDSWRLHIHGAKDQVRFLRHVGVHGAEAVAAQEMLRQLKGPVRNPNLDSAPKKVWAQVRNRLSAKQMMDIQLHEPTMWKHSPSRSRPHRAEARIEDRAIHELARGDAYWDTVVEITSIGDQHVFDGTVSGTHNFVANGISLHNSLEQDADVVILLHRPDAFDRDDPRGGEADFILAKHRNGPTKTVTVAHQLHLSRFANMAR

Protein RecA = target: T5, Protein RecA (Mycobacterium tuberculosis, UniProt P9WHJ3); assay: Fluorescence Cell-Free Homogeneous Dose Retest to Identify Inhibitors of RecA-Intein Splicing Activity. [Related pubchem assays (depositor defined):AID2097, AID2223, AID489010, AID492950]; assay type: functional
T5 sequence (P9WHJ3 whole entry): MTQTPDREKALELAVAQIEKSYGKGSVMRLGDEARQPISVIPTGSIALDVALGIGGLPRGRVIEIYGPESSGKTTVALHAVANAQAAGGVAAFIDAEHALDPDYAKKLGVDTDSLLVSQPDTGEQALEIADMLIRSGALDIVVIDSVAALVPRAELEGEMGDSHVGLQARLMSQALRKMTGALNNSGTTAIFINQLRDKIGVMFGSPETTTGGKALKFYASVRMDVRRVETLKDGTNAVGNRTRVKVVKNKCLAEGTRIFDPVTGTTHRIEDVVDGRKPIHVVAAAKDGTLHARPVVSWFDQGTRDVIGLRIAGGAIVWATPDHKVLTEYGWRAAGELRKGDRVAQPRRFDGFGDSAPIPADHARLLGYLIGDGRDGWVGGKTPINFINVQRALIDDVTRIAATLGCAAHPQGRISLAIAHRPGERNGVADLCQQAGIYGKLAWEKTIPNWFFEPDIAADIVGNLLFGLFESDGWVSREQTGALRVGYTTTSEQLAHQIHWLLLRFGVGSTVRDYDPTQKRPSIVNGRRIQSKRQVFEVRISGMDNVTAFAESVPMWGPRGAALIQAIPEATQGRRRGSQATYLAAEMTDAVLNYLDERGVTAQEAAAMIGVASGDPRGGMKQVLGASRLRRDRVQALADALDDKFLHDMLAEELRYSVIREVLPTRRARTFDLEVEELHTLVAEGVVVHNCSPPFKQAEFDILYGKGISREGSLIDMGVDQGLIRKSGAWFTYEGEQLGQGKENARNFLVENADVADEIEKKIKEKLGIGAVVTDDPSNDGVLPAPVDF

[10] = viability loss in THP-1 monocytes – THP-1 cells, cytotoxicity control for Vif-APOBEC3G degradation inhibitor project, dose response (AID 1117359); assay type: functional; details: THP-1
[11] = Luminescence Cell-Based Dose Retest to Confirm Inhibitors of Cancer Stem Cells. [Related pubchem assays (depositor defined):AID2717, AID2721]; assay type: functional; details: Homo sapiens
INS1 = assay: INS-1E survival protection against cytokine death – cell-based, luminescence, retest, dose response (AID 449756); assay type: functional; details: Rattus norvegicus;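 note: cell death triggered by IL-1 beta plus TNF-alpha plus IFN-gamma mixture; protective hits raise ATP signal compared with cytokine alone wells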

Sequence of Cytochrome P450 3A4 (P08684 whole entry): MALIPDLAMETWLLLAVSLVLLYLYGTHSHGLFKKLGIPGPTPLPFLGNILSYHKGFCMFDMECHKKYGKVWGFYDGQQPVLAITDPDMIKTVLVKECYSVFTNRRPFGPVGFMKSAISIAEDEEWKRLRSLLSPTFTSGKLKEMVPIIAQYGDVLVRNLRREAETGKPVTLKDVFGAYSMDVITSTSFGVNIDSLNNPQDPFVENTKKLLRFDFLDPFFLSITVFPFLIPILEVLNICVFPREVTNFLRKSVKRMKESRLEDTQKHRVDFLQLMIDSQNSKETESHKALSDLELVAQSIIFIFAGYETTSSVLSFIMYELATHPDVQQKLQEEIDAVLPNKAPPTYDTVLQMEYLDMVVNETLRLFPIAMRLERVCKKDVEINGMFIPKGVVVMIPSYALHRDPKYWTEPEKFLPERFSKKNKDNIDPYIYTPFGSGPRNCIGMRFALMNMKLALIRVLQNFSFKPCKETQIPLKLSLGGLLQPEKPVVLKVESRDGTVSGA
Sequence of Genome polyprotein (P29990 2492-3391 limits assumed): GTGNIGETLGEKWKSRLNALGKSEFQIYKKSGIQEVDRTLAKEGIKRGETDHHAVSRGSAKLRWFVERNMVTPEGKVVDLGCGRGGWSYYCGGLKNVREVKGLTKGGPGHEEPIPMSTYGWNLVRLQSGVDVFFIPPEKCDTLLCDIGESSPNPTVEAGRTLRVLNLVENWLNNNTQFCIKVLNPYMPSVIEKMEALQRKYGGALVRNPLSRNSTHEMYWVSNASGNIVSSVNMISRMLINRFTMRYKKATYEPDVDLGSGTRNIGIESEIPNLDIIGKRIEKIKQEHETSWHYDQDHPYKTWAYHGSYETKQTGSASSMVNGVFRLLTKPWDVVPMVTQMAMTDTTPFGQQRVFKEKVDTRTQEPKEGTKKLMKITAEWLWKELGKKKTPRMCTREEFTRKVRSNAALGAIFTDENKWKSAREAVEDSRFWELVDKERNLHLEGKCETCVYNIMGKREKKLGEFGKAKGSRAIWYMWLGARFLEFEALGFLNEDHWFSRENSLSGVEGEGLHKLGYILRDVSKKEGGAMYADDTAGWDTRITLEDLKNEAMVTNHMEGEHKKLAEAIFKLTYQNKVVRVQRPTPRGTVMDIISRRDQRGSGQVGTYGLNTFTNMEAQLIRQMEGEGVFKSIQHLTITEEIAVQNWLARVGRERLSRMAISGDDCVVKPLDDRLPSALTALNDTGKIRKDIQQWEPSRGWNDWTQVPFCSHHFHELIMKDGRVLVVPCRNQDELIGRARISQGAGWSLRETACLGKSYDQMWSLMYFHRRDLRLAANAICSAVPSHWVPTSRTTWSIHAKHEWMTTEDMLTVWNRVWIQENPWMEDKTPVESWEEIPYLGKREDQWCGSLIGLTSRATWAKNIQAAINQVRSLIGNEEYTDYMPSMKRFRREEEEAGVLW
Sequence of Cytochrome P450 2D6 (P10635 whole entry): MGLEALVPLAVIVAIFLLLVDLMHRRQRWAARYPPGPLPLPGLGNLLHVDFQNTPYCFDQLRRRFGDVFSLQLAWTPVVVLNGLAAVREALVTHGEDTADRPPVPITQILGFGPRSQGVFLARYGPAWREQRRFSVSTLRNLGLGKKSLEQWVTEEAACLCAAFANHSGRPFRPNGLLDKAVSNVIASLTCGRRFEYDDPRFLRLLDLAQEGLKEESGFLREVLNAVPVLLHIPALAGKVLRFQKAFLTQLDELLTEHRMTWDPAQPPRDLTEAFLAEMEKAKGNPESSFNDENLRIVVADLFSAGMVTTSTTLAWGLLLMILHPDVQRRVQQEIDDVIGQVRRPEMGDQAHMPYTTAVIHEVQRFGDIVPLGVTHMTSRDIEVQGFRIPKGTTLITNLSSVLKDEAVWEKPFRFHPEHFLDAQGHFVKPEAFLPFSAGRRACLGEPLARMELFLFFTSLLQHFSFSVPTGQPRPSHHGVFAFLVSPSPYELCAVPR
Sequence of Cytochrome P450 2C9 (P11712 whole entry): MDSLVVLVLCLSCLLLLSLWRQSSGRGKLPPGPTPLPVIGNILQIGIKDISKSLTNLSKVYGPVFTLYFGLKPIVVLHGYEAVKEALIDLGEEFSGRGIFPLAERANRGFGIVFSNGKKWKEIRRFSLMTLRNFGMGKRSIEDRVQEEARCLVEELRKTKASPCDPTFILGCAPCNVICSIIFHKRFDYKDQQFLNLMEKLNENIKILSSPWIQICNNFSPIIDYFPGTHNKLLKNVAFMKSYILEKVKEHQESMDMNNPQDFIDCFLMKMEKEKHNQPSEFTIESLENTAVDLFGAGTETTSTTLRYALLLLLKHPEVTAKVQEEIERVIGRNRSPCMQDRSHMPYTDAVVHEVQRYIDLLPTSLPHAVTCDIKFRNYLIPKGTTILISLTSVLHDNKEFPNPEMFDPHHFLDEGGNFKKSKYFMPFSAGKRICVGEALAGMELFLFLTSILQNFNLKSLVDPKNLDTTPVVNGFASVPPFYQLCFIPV
T3 sequence (P11940 whole entry, the tested form may be a part): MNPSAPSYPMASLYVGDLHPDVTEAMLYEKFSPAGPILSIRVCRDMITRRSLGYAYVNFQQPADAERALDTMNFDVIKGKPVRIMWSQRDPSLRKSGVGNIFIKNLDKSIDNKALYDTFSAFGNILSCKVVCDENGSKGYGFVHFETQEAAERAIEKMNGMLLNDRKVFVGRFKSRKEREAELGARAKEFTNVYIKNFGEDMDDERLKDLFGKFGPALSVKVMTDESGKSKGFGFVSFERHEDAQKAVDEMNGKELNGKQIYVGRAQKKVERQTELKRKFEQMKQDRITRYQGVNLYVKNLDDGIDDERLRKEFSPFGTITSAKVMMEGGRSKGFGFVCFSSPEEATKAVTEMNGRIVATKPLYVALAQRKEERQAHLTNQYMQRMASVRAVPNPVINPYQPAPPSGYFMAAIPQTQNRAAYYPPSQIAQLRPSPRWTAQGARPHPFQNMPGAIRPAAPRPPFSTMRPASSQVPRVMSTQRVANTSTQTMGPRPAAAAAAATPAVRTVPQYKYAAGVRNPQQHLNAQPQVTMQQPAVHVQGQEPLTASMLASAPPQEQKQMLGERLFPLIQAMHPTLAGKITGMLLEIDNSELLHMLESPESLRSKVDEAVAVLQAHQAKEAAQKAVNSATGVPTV

For O=C(OCC(=O)N1CCCc2ccccc21)c1ccc(Cl)nc1, the IC50 (Coagulation factor XII) was > 50 µM (inactive).

For CCOC(=O)N1CCN(C2=C(NS(=O)(=O)c3ccc(Br)cc3)C(=O)c3ccccc3C2=O)CC1, the CC50 (Vero) was > 40 µM (active).

For COc1ccc(-c2cc(-c3nnc(COC(=O)CC4CC5CCC4C5)o3)c3ccccc3n2)cc1OC (stereo unspecified), the IC50 (Coagulation factor XII) was > 50 µM (inactive).

For Cc1ccc(NC(=O)/C(CN(C)C)=N\O)cc1, the IC50 (Coagulation factor XII) was > 50 µM (inactive).

In the case of CCN1CCN(CC(=O)N2c3ccccc3CC2C)CC1.O=C(O)C(=O)O (stereo unspecified), the AC50 (Cytochrome P450 2D6) is reported as 17.8 µM (inconclusive) and the AC50 (Cytochrome P450 3A4) is reported as “inconclusive”.

With COCC1CCCN(Cc2c[nH]nc2-c2cc3ccccc3o2)C1 (stereo unspecified) the EC50 [1] was > 50 µM (active).

In the case of CC(=O)c1cccc(S(=O)(=O)N2CCN(c3nc4cc(C)cc(C)c4cc3C#N)CC2)c1, the CC50 [2] is reported as 18.4 µM (active), the IC50 [3] is reported as 3.28 µM (active) and the IC50 [4] is reported as 5.84 µM (active).

In the case of O[C@@H](c1ccccc1)C1CCN(CCc2ccccc2)CC1, the AC50 (Cytochrome P450 2D6) is reported as 25.1 µM (inconclusive), the AC50 (Cytochrome P450 1A2) is reported as 31.6 µM (inconclusive) and the AC50 (Cytochrome P450 3A4) is reported as “inconclusive”.

In the case of O=C(Nc1ccc2[nH]c(-c3ccc(Br)o3)nc2c1)c1cccs1, the CC50 [2] is reported as 24 µM (active), the EC50 [1] is reported as > 50 µM (active) and the EC50 [5] is reported as 3.18 µM (active). The EC50 [6] was > 60 µM (not active).

In the case of CCn1nnnc1SCC(=O)c1cc(Cl)ccc1OC, the EC50 [1] is reported as > 50 µM (active).

For Cc1sc2nc3ccc(NCc4ccco4)nn3c(=O)c2c1C, the CC50 (Vero) was > 40 µM (active), the IC50 (Genome polyprotein) was > 100 µM (active) and the IC50 [7] was > 66 µM (inactive). The IC50 [8] was > 66 µM (inactive).

For CC(=O)O[C@]1(C(C)=O)CC[C@@H]2[C@@H]3C=C(C)C4=CC(=O)CC[C@@]4(C)[C@H]3CC[C@]21C, the AC50 (Cytochrome P450 2C9) was 12.6 µM (inconclusive) and the AC50 (Cytochrome P450 3A4) was “inconclusive”.

In the case of O=C(COC(=O)C1CC(=O)N(Cc2ccco2)C1)c1ccc(OC(=O)c2ccco2)cc1 (stereo unspecified), the IC50 (Coagulation factor XII) is reported as 13.3 µM (active), the AC50 [9] is reported as > 380 µM (inactive) and the EC50 (Protein RecA) is reported as 18 µM (active).

With COC(=O)c1ccccc1NC(=O)Nc1cc(C)ccn1 the IC50 (Coagulation factor XII) was > 50 µM (inactive).

With COc1cc2c(cc1OC)C(=O)C(Br)CC2 (stereo unspecified) the CC50 (Vero) was 26.4 µM (active) and the CC50 [10] was > 40 µM (active).

With CSc1nc2ccccc2cc1/C=C(\C#N)c1cccc(Cl)c1 the AC50 [11] was 1.17 µM (active), the AC50 (Cytochrome P450 2C9) was 39.8 µM (inconclusive) and the AC50 (Cytochrome P450 3A4) was “inconclusive”.

With CCC(=O)OCCn1c(=O)c2cc3c(=O)n(CCOC(=O)CC)c(=O)c3cc2c1=O the IC50 (Coagulation factor XII) was > 50 µM (inactive).

In the case of COc1cc(CN2CCN(c3cc(C)ccc3C)CC2)ccc1O, the IC50 [3] is reported as 2.74 µM (active), the IC50 [4] is reported as 1.4 µM (active) and the AC50 (INS1) is reported as 1.66 µM (active).

For Cc1c(C=O)c2ccccn2c1C(=O)c1ccccc1, the EC50 [1] was > 50 µM (active).

For NCCS [CYSTEAMINE], the AC50 (Cytochrome P450 3A4) was “inconclusive”.

For COc1cc(/C=C2\SC(=S)N(NS(=O)(=O)c3ccccc3)C2=O)cc(OC)c1OC, the CC50 (Vero) was > 40 µM (active) and the IC50 (Genome polyprotein) was 65 µM (active).
